In PubChem BioAssay (NCI):
Values joined by “and” are separate entries in the source; they are usually repeats but may differ in a detail not shown here. Identical values can stand only once.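 Five concentrations, 48 hours, 96-well plates. The concentration for 50% growth inhibition is given as GI50. TGI marks complete inhibition of growth.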

Assays:
Test in all cases: NCI tumour cell line growth inhibition, 48 h
HT29 colon = system: HT29 colon
ACHN renal = system: ACHN renal
HOP-62 NSCLC = system: HOP-62 NSCLC
HCT-116 colon = system: HCT-116 colon
SW-620 colon = system: SW-620 colon
EKVX NSCLC = system: EKVX NSCLC
CCRF-CEM leukemia = system: CCRF-CEM leukemia
HCC-2998 colon = system: HCC-2998 colon
UACC-257 melanoma = system: UACC-257 melanoma

Structure (SMILES)	TGI (HT29 colon) [µM]	TGI (ACHN renal)	TGI (HOP-62 NSCLC) [µM]	TGI (HCT-116 colon) [µM]	TGI (SW-620 colon) [µM]	TGI (EKVX NSCLC) [µM]	TGI (CCRF-CEM leukemia) [µM]	TGI (HCC-2998 colon) [µM]	TGI (UACC-257 melanoma) [µM]	GI50 (ACHN renal) [nM]	GI50 (HOP-62 NSCLC) [µM]	GI50 (HCT-116 colon) [µM]	GI50 (SW-620 colon) [µM]	GI50 (EKVX NSCLC) [µM]	GI50 (UACC-257 melanoma) [nM]
CC(=O)OCC1OC(Oc2cc(C)c(O)cc2C/C=C(\C)CC/C=C(\C)CC(=O)CC(C)C)C(O)C(OC(C)=O)C1OC(C)=O (stereo not given)	12.5	44.9 µM	40	> 50	24.6	16.3	22.3	24.5	31.7						
Cc1ccc2oc(=O)c(C(=O)Nc3nc(C45CC6CC(CC(C6)C4)C5)cs3)cc2c1	> 100	> 100 µM	> 100	> 100	> 100	> 100	> 100	> 100	> 100						
O=C(CNc1ccccc1[N+](=O)[O-])Nn1c(-c2ccccc2)nc2ccccc2c1=O	33.7	56.9 µM	42.8	41.4	42.2	36.2	43.6	26.3	> 10						
O=C(N/N=C(/COc1ccc([N+](=O)[O-])cc1)N=Cc1ccncc1)c1ccncc1	> 100	> 100 µM	> 100	> 100	> 100	> 100	> 100	> 100	> 100						
COc1cc2c(cc1OC)C1(COc3cc(O)c(O)c(O)c3C1=O)C2 (stereo not given)	> 50	> 50 µM	> 50	> 50	> 50		> 50		> 50						
CCCCCCCCCCC1OC([C@@H](O)CC[C@H](O)C2CC[C@@H](CCCCCCCC(O)CC3=CC(C)OC3=O)O2)CCC1O (stereo not given in full)		8.79 µM and > 25 µM	> 25	> 25	> 25	> 25	> 25	> 25	> 18.4	1620	6.29	6	4.37	9.5	2510
CCOC(=O)c1sc2[n+](c1C)C(=O)/C(=C/c1ccc([N+](=O)[O-])cc1)S2	41.9	> 100 µM	74	54.7	73.5		> 100	37.5	98						
O=c1[nH]nc(Cc2ccccc2)n1CCO	> 100	> 100 µM		> 100	> 100	> 100		> 100	> 100						
C[N+]1(CCCl)CC[N+](C)(CCCl)CC1 (stereo not given)	> 100	> 100 µM	> 100	> 100	> 100	> 100	> 100		> 100						
C=C1C(=O)O[C@H]2[C@@H](O)[C@H](C)CCC[C@]3(C)O[C@H]3CC[C@@]3(C)O[C@@H]3C[C@@H]12	12.1		14.3	6.52	5.05	11.3	5.22	10.9							
Cc1ccc2nc(-c3ccc(N4C(=O)C(Cl)C4c4ccc(Cl)cc4)cc3)sc2c1 (stereo not given)	4.02	50.7 µM	61.7	59.4	48	19.9	36.7		47.7						
